Measured values from patent US20260102359A1, “COMBINATION TREATMENT OF DERMAL AND TRANSDERMAL FIBROTIC DISEASES, DISORDERS AND ASSOCIATED PAIN AND INFLAMMATION” (ERESINA, LLC, priority 2022, published 2026).
Where a name gives a salt, the structure may show the parent alone.

These compounds were tested on hDMFa myofibroblast cells.
With `COc1cc2nccc(Oc3ccc(NC(=O)C4(C(=O)Nc5ccc(F)cc5)CC4)cc3)c2cc1OC.O=C(O)C[C@H](O)C(=O)O` [Cmpd 199, Cabozantinib malate (XL184)] the “Compound Myofibroblast Cytotoxicity Activity” value was “++”. In the case of `O=C(O)/C=C/c1ccc(O)c(O)c1` [Cmpd 200, Caffeic acid], the “Compound Myofibroblast Cytotoxicity Activity” value was “+”. `O=C(/C=C/c1ccc(O)c(O)c1)OCCc1ccccc1` [Cmpd 201] was tested, and the “Compound Myofibroblast Cytotoxicity Activity” value was “++”. `C=C1CC[C@H](O)C/C1=C/C=C1\CCC[C@]2(C)[C@@H]([C@H](C)CCCC(C)(C)O)CC[C@@H]12` [Cmpd 202, Calcifediol] was tested, and the “Compound Myofibroblast Cytotoxicity Activity” value was “+++”. `C=C1/C(=C\C=C2/CCC[C@]3(C)[C@@H]([C@H](C)/C=C/[C@@H](O)C4CC4)CC[C@@H]23)C[C@@H](O)C[C@@H]1O` [Cmpd 203, Calcipotriol] was tested, and the “Compound Myofibroblast Cytotoxicity Activity” value was “+++”. With `C=C1/C(=C\C=C2/CCC[C@]3(C)[C@@H]([C@H](C)CCCC(C)(C)O)CC[C@@H]23)C[C@@H](O)C[C@@H]1O` [Cmpd 204, Calcitriol] the “Compound Myofibroblast Cytotoxicity Activity” value was “+++”. In the case of `O=S(=O)([O-])c1cc(O)ccc1O.O=S(=O)([O-])c1cc(O)ccc1O.[Ca+2]` [Cmpd 205, Calcium dobesilate], the “Compound Myofibroblast Cytotoxicity Activity” value was “++”. With `C=C(C)[C@@H]1CC[C@@]2(C)[C@H]1[C@H]1CCC3[C@@]4(C)CC[C@H](O)C(C)(C)[C@@H]4CC[C@@]3(C)[C@]1(C)C[C@@H]2O` (some centres unmarked) [Cmpd 207, Calenduladiol] the “Compound Myofibroblast Cytotoxicity Activity” value was “+”. For `Cc1ccc([C@@H]2O[C@H](CO)[C@@H](O)[C@H](O)[C@H]2O)cc1Cc1ccc(-c2ccc(F)cc2)s1.O` [Cmpd 209, Canagliflozin (hemihydrate)], the “Compound Myofibroblast Cytotoxicity Activity” value was “+++++”. With `CCOc1nc2cccc(C(=O)O)c2n1Cc1ccc(-c2ccccc2-c2nnn[nH]2)cc1` [Cmpd 210, Candesartan] the “Compound Myofibroblast Cytotoxicity Activity” value was “++”. With `CCOc1nc2cccc(C(=O)OC(C)OC(=O)OC3CCCCC3)c2n1Cc1ccc(-c2ccccc2-c2nnn[nH]2)cc1` (centres unmarked) [Cmpd 211, Candesartan Cilexetil] the “Compound Myofibroblast Cytotoxicity Activity” value was “+++”. `CCCCCCCCCC(=O)O` [Cmpd 212, Caprate (10:0)] was tested, and the “Compound Myofibroblast Cytotoxicity Activity” value was “++”. With `C[N+](C)(C)CCOC(N)=O.[Cl-]` [Cmpd 214, Carbamoylcholine chloride] the “Compound Myofibroblast Cytotoxicity Activity” value was “++”. With `O=NN(CCCl)C(=O)NCCCl` [Cmpd 218, Carmustine] the “Compound Myofibroblast Cytotoxicity Activity” value was “++”. With `CC(C)(C)NCC(O)COc1cccc2c1CCC(=O)N2` (centres unmarked) [Cmpd 219, Carteolol HCl] the “Compound Myofibroblast Cytotoxicity Activity” value was “++”. In the case of `Cc1ccc(C(C)C)cc1O` [Cmpd 220, Carvacrol], the “Compound Myofibroblast Cytotoxicity Activity” value was “++”. For `COc1ccccc1OCCNCC(O)COc1cccc2[nH]c3ccccc3c12` (centres unmarked) [Cmpd 221, Carvedilol], the “Compound Myofibroblast Cytotoxicity Activity” value was “+++”. For `C=C1CC[C@H]2O[C@]2(C)CC[C@@H]2[C@@H]1CC2(C)C` [Cmpd 222, Caryophyllene Oxide], the “Compound Myofibroblast Cytotoxicity Activity” value was “++”. With `COc1cc2c(Oc3ccc4[nH]c(C)cc4c3F)ncnc2cc1OCCCN1CCCC1` [Cmpd 226, Cediranib (AZD217)] the “Compound Myofibroblast Cytotoxicity Activity” value was “++++”. `CC1=C(C(=O)O)N2C(=O)[C@@H](NC(=O)[C@H](N)c3ccc(O)cc3)[C@H]2SC1` [Cmpd 227, Cefadroxil (hydrate)] was tested, and the “Compound Myofibroblast Cytotoxicity Activity” value was “++”. `Cc1nnc(SCC2=C(C(=O)O)N3C(=O)[C@@H](NC(=O)Cn4cnnn4)[C@H]3SC2)s1` [Cmpd 228, Cefazolin (sodium salt)] was tested, and the “Compound Myofibroblast Cytotoxicity Activity” value was “+++”. In the case of `CO/N=C(\C(=O)N[C@@H]1C(=O)N2C(C(=O)OCOC(=O)C(C)(C)C)=C(C)CS[C@H]12)c1csc(N)n1.Cl` [Cmpd 230, Cefetamet pivoxil hydrochloride], the “Compound Myofibroblast Cytotoxicity Activity” value was “+++++”. With `O=C(O)C1=C(CSc2nnnn2CS(=O)(=O)O)CS[C@@H]2[C@H](NC(=O)[C@H](O)c3ccccc3)C(=O)N12` [Cmpd 232, Cefonicid (sodium salt)] the “Compound Myofibroblast Cytotoxicity Activity” value was “++++”. For `CO/N=C(\C(=O)N[C@@H]1C(=O)N2C(C(=O)O)=C(COC(C)=O)CS[C@H]12)c1csc(N)n1` [Cmpd 233, Cefotaxime (sodium salt)], the “Compound Myofibroblast Cytotoxicity Activity” value was “+++”. For `CO[C@@]1(NC(=O)Cc2cccs2)C(=O)N2C(C(=O)O)=C(COC(N)=O)CS[C@@H]21` [Cmpd 234, Cefoxitin (sodium salt)], the “Compound Myofibroblast Cytotoxicity Activity” value was “+++++”. `CO/N=C(\C(=O)N[C@@H]1C(=O)N2C(C(=O)[O-])=C(CSC(=O)c3ccco3)CS[C@H]12)c1csc(N)n1.[Na+]` [Cmpd 237, Ceftiofur sodium] was tested, and the “Compound Myofibroblast Cytotoxicity Activity” value was “++”. In the case of `CO/N=C(\C(=O)N[C@@H]1C(=O)N2C(C(=O)OC(C)OC(C)=O)=C(COC(N)=O)CS[C@H]12)c1ccco1` (some centres unmarked) [Cmpd 238, Cefuroxime axetil], the “Compound Myofibroblast Cytotoxicity Activity” value was “++”. In the case of `O=C[C@H](O)[C@@H](O)[C@H](O[C@@H]1O[C@H](CO)[C@@H](O)[C@H](O)[C@H]1O)[C@H](O)CO` [Cmpd 239, Cellobiose], the “Compound Myofibroblast Cytotoxicity Activity” value was “+++”. For `COc1ccc2cc1Oc1ccc(cc1)C[C@H]1c3c(cc4c(c3Oc3cc5c(cc3OC)CCN(C)[C@@H]5C2)OCO4)CCN1C` [Cmpd 241, Cepharanthine], the “Compound Myofibroblast Cytotoxicity Activity” value was “++”. In the case of `C[C@H](CCC(=O)O)[C@H]1CC[C@H]2[C@@H]3[C@H](O)C[C@@H]4C[C@H](O)CC[C@]4(C)[C@H]3CC[C@]12C` [Cmpd 245, Chenodeoxycholic Acid], the “Compound Myofibroblast Cytotoxicity Activity” value was “+++”. `CC(=O)O.CC(=O)O.NC(=N\CCCCCC/N=C(N)/N=C(\N)Nc1ccc(Cl)cc1)/N=C(\N)Nc1ccc(Cl)cc1` [Cmpd 247, Chlorhexidine diacetate] was tested, and the “Compound Myofibroblast Cytotoxicity Activity” value was “+++++”. In the case of `N=C(NCCCCCCNC(=N)NC(=N)Nc1ccc(Cl)cc1)NC(=N)Nc1ccc(Cl)cc1.O=C(O)[C@H](O)[C@@H](O)[C@H](O)[C@H](O)CO.O=C(O)[C@H](O)[C@@H](O)[C@H](O)[C@H](O)CO` [Cmpd 248, Chlorhexidine digluconate], the “Compound Myofibroblast Cytotoxicity Activity” value was “+++”. `[H]/N=C(\N/C(=N/[H])NCCCCCCNC(=N)NC(=N)Nc1ccc(Cl)cc1)Nc1ccc(Cl)cc1` [Cmpd 249, Chlorhexidine HCl] was tested, and the “Compound Myofibroblast Cytotoxicity Activity” value was “+++++”. With `CN(C)CCN(Cc1ccc(Cl)cc1)c1ccccn1` [Cmpd 250, Chloropyramine hydrochloride] the “Compound Myofibroblast Cytotoxicity Activity” value was “++”. `Oc1c(Cl)cc(Cl)c2cccnc12` [Cmpd 251, Chloroxine] was tested, and the “Compound Myofibroblast Cytotoxicity Activity” value was “++++”. For `CN(C)CCCN1c2ccccc2Sc2ccc(Cl)cc21` [Cmpd 253, Chlorpromazine HCl], the “Compound Myofibroblast Cytotoxicity Activity” value was “+++”. `CN(C)CC/C=C1/c2ccccc2Sc2ccc(Cl)cc21` [Cmpd 254, Chlorprothixene] was tested, and the “Compound Myofibroblast Cytotoxicity Activity” value was “+++”. For `CN(C)[C@@H]1C(O)=C(C(N)=O)C(=O)[C@@]2(O)C(O)=C3C(=O)c4c(O)ccc(Cl)c4[C@@](C)(O)[C@H]3C[C@@H]12` [Cmpd 256, Chlortetracycline HCl], the “Compound Myofibroblast Cytotoxicity Activity” value was “++”. `C[N+](C)(C)CCO.O=C([O-])C(O)C(O)C(=O)O` (centres unmarked) [Cmpd 257, Choline bitartrate] was tested, and the “Compound Myofibroblast Cytotoxicity Activity” value was “+++”. With `Cc1cc(C2CCCCC2)n(O)c(=O)c1` [Cmpd 258, Ciclopirox] the “Compound Myofibroblast Cytotoxicity Activity” value was “++++”. `Cc1cc(C2CCCCC2)n(O)c(=O)c1.NCCO` [Cmpd 259, Ciclopirox ethanolamine] was tested, and the “Compound Myofibroblast Cytotoxicity Activity” value was “+++”. `CC1(C)C[C@@H]1C(=O)N/C(=C\CCCCSC[C@H](N)C(=O)O)C(=O)O` [Cmpd 260, Cilastatin] was tested, and the “Compound Myofibroblast Cytotoxicity Activity” value was “++++”. In the case of `O=C(O)c1cc(-c2ccccc2)nc2ccccc12` [Cmpd 265, Cinchophen], the “Compound Myofibroblast Cytotoxicity Activity” value was “++”. `O=C(O)C=Cc1ccccc1` [Cmpd 266, Cinnamic acid] was tested, and the “Compound Myofibroblast Cytotoxicity Activity” value was “++”. In the case of `O=C(O)c1cn(C2CC2)c2cc(N3CCNCC3)c(F)cc2c1=O` [Cmpd 268, Ciprofloxacin (hydrochloride)], the “Compound Myofibroblast Cytotoxicity Activity” value was “++”. In the case of `C[N+](C)(C)CCOP(=O)(O)OP(=O)([O-])OC[C@H]1O[C@@H](n2ccc(N)nc2=O)[C@H](O)[C@@H]1O` [Cmpd 271, Citicoline (sodium salt)], the “Compound Myofibroblast Cytotoxicity Activity” value was “+++”. With `O=C(O)CC(O)(CC(=O)O)C(=O)O` [Cmpd 273, Citric acid] the “Compound Myofibroblast Cytotoxicity Activity” value was “++++”. For `CC[C@H]1OC(=O)[C@H](C)[C@@H](O[C@H]2C[C@@](C)(OC)[C@@H](O)[C@H](C)O2)[C@H](C)[C@@H](O[C@@H]2O[C@H](C)C[C@H](N(C)C)[C@H]2O)[C@](C)(OC)C[C@@H](C)C(=O)[C@H](C)[C@@H](O)[C@]1(C)O` [Cmpd 274, Clarithromycin], the “Compound Myofibroblast Cytotoxicity Activity” value was “+++”. With `Clc1ccc(Cn2c(CN3CCCC3)nc3ccccc32)cc1` [Cmpd 277, Clemizole hydrochloride] the “Compound Myofibroblast Cytotoxicity Activity” value was “++”. With `CC(C)(C)NCC(O)c1cc(Cl)c(N)c(Cl)c1` (centres unmarked) [Cmpd 278, Clenbuterol (hydrochloride)] the “Compound Myofibroblast Cytotoxicity Activity” value was “++”. `CCCC(=O)OCOC(=O)C1=C(C)NC(C)=C(C(=O)OC)C1c1cccc(Cl)c1Cl` (centres unmarked) [Cmpd 279, Clevidipine Butyrate] was tested, and the “Compound Myofibroblast Cytotoxicity Activity” value was “++”. For `Oc1c(I)cc(Cl)c2cccnc12` [Cmpd 281, Clioquinol], the “Compound Myofibroblast Cytotoxicity Activity” value was “++”. With `O=P(O)(O)C(Cl)(Cl)P(=O)(O)O` [Cmpd 282, Clodronate (sodium salt hydrate)] the “Compound Myofibroblast Cytotoxicity Activity” value was “+++”. In the case of `CC(C)/N=c1\cc2n(-c3ccc(Cl)cc3)c3ccccc3nc-2cc1Nc1ccc(Cl)cc1` [Cmpd 283, Clofazimine], the “Compound Myofibroblast Cytotoxicity Activity” value was “++”. For `CCN(CC)CCOc1ccc(C(=C(Cl)c2ccccc2)c2ccccc2)cc1` [Cmpd 284, Clomiphene citrate], the “Compound Myofibroblast Cytotoxicity Activity” value was “+++”. `CN(C)CCCN1c2ccccc2CCc2ccc(Cl)cc21` [Cmpd 285, Clomipramine HCl] was tested, and the “Compound Myofibroblast Cytotoxicity Activity” value was “++”. `Cc1cc(C(C#N)c2ccc(Cl)cc2)c(Cl)cc1NC(=O)c1cc(I)cc(I)c1[O-].[Na+]` (centres unmarked) [Cmpd 288, Closantel Sodium] was tested, and the “Compound Myofibroblast Cytotoxicity Activity” value was “+++”. `Clc1ccccc1C(c1ccccc1)(c1ccccc1)n1ccnc1` [Cmpd 289, Clotrimazole] was tested, and the “Compound Myofibroblast Cytotoxicity Activity” value was “+++”. With `O=C(c1ccc(F)c(F)c1Nc1ccc(I)cc1F)N1CC(O)([C@@H]2CCCCN2)C1` [Cmpd 290, Cobimetinib] the “Compound Myofibroblast Cytotoxicity Activity” value was “++++”.
